The test system of data set [1] is U87 MG glioma cells. As to the kind of experiment: Cytotoxicity on U87 MG glioma cells, tetrazolium blue colorimetric method. The note with it: paclitaxel 0.5 μg/mL, siRNA 100 nM, 48 hours. Format: cell-based. On the procedure: FIG. 1: In vitro cell inhibition rate against U87 MG glioma cells of the Angiopep-2-modified glycolipid nano-delivery system. 200 μL suspensions of well-grown U87 MG glioma cells were inoculated into a 96-well plate at a density of 5×10^3/well. After adherent growth of the cells, an Angiopep-2-modified glycolipid nano-delivery system was added, with paclitaxel at a concentration of 0.5 μg/mL and the siRNA at a concentration of 100 nM. The untreated cells were used as a blank control. The cell growth inhibition rate was measure with a tetrazolium blue colorimetric method (n=3).
U87 MG glioma cells were used as the model cell to assess the growth inhibitory effect of the Angiopep-2-modified glycolipid nano-delivery system on tumor cells with a tetrazolium blue colorimetric method. The Angiopep-2-modified glycolipid nano-delivery system was obtained according to the procedures as described in the above sections of 1 and 2. 200 μL suspensions of well-grown U87 MG cells were inoculated into a 96-well plate at a density of 5×10^3/well, and were incubated at 37° C. and 5% CO2 until the cells adhere. The Angiopep-2-modified glycolipid nano-delivery system was added, with paclitaxel at a concentration of […] and the siRNA at a concentration of 100 nM. The untreated cells were used as a blank control. […] Absorbance at 570 nm was measured with a microplate reader. […]

Data set [2] relates to VEGF mRNA in U87 MG cells. The data set is described as follows: Down-regulation of tumor cell VEGF mRNA expression, qt-PCR. The note with it: paclitaxel 0.5 μg/mL, siRNA 100 nM, 48 hours, ΔΔCt method, n=3. Format: cell-based. As to the method:
FIG. 2: In vitro down-regulation of expression of U87 MG cell VEGF mRNA by the Angiopep-2-modified glycolipid nano-delivery system. 2 mL suspensions of well-grown U87 MG glioma cells were inoculated into a 6-well plate at a density of 4×10^5/well. After adherent growth of the cells, an Angiopep-2-modified glycolipid nano-delivery system was added, with paclitaxel at a concentration of 0.5 μg/mL and the siRNA at a concentration of 100 nM. The incubation was carried out for 48 hours. An untreated group was used as the blank control. The RNA in the cells was extracted with TRIzol. The relative expression level of tumor cell VEGF mRNA was measure with qt-PCR and calculated with a ΔΔCt method (n=3).
The Angiopep-2-modified glycolipid nano-delivery system was obtained according to the procedures as described in the above sections of 1 and 2. 2.0 mL suspensions of well-grown U87 MG cells were inoculated into a 6-well plate at a density of 4×10^5/well, and were incubated at 37° C. and 5% CO2 until the cells adhere. The Angiopep-2-modified glycolipid nano-delivery system was added, with paclitaxel at a concentration of 0.5 μg/mL and the siRNA at a concentration of 100 nM. The incubation was carried out for 48 hours. The untreated cells were used as a blank control. Each of the group was repeated 3 times. The tumor cell VEGF expression level was measured with qt-PCR.

Consider `CC(=O)O[C@H]1C(=O)[C@@]2(C)[C@H]([C@H](OC(=O)c3ccccc3)[C@]3(O)C[C@H](OC(=O)[C@H](O)[C@@H](NC(=O)c4ccccc4)c4ccccc4)C(C)=C1C3(C)C)[C@]1(OC(C)=O)CO[C@@H]1C[C@@H]2O` [paclitaxel], for which the inhibition – broadly, how much of the control response was suppressed – at 0.5 µg/mL in data set [1] (Homo sapiens, U-87 MG, n=3, read-out: cell inhibition rate) came to 18.7 ± 5.4%. In addition, the “expression level of VEGF mRNA (relative)” value in data set [2] is given as 78.5%.

On to “siRNA: siRNA, sense strand 5′-GUCUAUCAGCGCAGCUACUTT-3′ (SEQ ID NO: 1), antisense strand 5′-AGUAGCUGCGCUGAUAGACTT-3′ (SEQ ID NO: 2) (sense GUCUAUCAGCGCAGCUACUNN; antisense AGUAGCUGCGCUGAUAGACNN; listed as RNA, chemistry not given here)”, for which the cell inhibition rate in data set [1] (n=3) was determined as 5.5±0.5%. Besides, in data set [2], the “expression level of VEGF mRNA (relative)” value is on record as 92.9%.

Values taken from patent US12370167B2, “Blood-brain barrier permeability regulator and use thereof” (ZHEJIANG UNIVERSITY, priority 2019, dated 2025).
